Experimental findings from US20260022142A1, “MACROCYCLIC IMMUNOMODULATORS” (Bristol-Myers Squibb Company, priority 2022, published 2026) are described below.

Each structure is given as a SMILES string. Bridge positions count the residues as written; N and C are the ends. Square brackets hold non-standard residues; d marks the D form. Peptide text beside a SMILES is read from it. * marks the point of attachment. ξ: configuration not given here. Phe(3-CF3) = N[C@@H](Cc1cccc(C(F)(F)F)c1)C(=O)O; Phe(4-COOH) = N[C@@H](Cc1ccc(C(=O)O)cc1)C(=O)O; Bip = N[C@@H](Cc1ccc(-c2ccccc2)cc1)C(=O)O; Phe(3-F) = N[C@@H](Cc1cccc(F)c1)C(=O)O; Phe(3-Me) = Cc1cccc(C[C@H](N)C(=O)O)c1; NH(CH2)12COOH = O=C(O)CCCCCCCCCCCCN*; Val(3-OH) = CC(C)(O)[C@H](N)C(=O)O; hArg = N=C(N)NCCCC[C@H](N)C(=O)O; 4Pal = N[C@@H](Cc1ccncc1)C(=O)O; Cha = N[C@@H](CC1CCCCC1)C(=O)O; Cit = NC(=O)NCCC[C@H](N)C(=O)O; Thr(3ξ) = CC(O)[C@H](N)C(=O)O; dOrn = NCCC[C@@H](N)C(=O)O; Carboxymethyl = O=C(O)C*; Orn = NCCC[C@H](N)C(=O)O; Aun = NCCCCCCCCCCC(=O)O; Dab = NCC[C@H](N)C(=O)O; Dap = NC[C@H](N)C(=O)O; AEEA = NCCOCCOCC(=O)O; ξC = NC(CS)C(=O)O

Broadly, the IC50 is the concentration needed to halve the response being measured.

The target of this assay is T1, PD-1/PD-L1 interaction (PE-labeled human PD-L1-Ig binding to Jurkat cell line over-expressing human PD-1) (Homo sapiens, UniProt Q15116).
T1 construct: expressed in transfected cells; host or cells: Jurkat
T1 sequence (Q15116 25-288): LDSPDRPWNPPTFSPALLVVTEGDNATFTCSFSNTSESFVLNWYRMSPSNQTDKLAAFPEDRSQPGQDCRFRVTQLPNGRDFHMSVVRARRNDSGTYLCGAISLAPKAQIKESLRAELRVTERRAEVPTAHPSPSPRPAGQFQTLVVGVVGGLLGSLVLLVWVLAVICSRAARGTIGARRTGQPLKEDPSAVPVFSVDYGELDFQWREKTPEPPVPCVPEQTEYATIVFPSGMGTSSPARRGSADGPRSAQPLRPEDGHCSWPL
In words: Jurkat-PD-1 Cell Binding High-Content Screening Assay (CBA). The settings on record: Jurkat cell line over-expressing human PD-1; PE-labeled PD-L1-Ig 20 nM final; read-out: Jurkat hPD1-PDL1 IC50. The class given is cell-based. The essentials: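 Jurkat cells over-expressing human PD-1 (8×10^3 per well, DMEM/10% FCS) preincubated with compound 2 h at 37° C, then PE-labeled human PD-L1-Ig (20 nM final) added for 1 h. Cells fixed with paraformaldehyde, Hoechst-stained, and bound fluorescence quantified by high-content imaging.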
As to `CC(C)C[C@H]1NC(=O)[C@H](CCCN)NC(=O)[C@H](C(C)C)NC(=O)[C@H](Cc2ccc(-c3ccccc3)cc2)NC(=O)[C@H](C(C)C)NC(=O)[C@H](Cc2c[nH]c3ccccc23)NC(=O)[C@H](CC(=O)O)NC(=O)[C@H](Cc2ccc(OCC(=O)O)cc2)NC(=O)[C@H](CCCCNC(=N)N)NC(=O)CSC[C@@H](C(=O)N[C@@H](CCN)C(=O)NCCOCCOCC(=O)NCCCCCCCCCCC(=O)O)NC(=O)[C@H](CCN)NC(=O)[C@H](C(C)C)NC(=O)[C@H](CC2CCCCC2)NC(=O)[C@H](CC(N)=O)NC1=O` [Compound 3215] ({CH2CO}-[hArg]Y(Carboxymethyl)DWV[Bip]V[Orn][dL]N[Cha]V[Dab]C[Dab][AEEA][Aun]-OH; thioether N-14), the half-inhibitory concentration (IC50) is 25.3 nM. Then `Cc1cccc(C[C@@H]2NC(=O)[C@H](CC(=O)O)NC(=O)[C@H](Cc3ccc(OCC(=O)O)cc3)NC(=O)[C@H](CCCNC(=N)N)NC(=O)CSC[C@@H](C(=O)N[C@@H](CCCCN)C(=O)NCCCCCCCCCCC(=O)O)NC(=O)[C@H](CN)NC(=O)[C@H](C(C)(C)O)NC(=O)[C@H](CC3CCCCC3)NC(=O)[C@H](CCN)NC(=O)[C@@H](CC(C)C)NC(=O)[C@H](CCCN)NC(=O)[C@H](Cc3ccc(OCC(=O)O)cc3)NC(=O)[C@H](Cc3ccc(-c4ccccc4)cc3)NC(=O)[C@H](Cc3ccc(OCC(=O)O)cc3)NC2=O)c1` [Compound 2850] ({CH2CO}-RY(Carboxymethyl)D[Phe(3-Me)]Y(Carboxymethyl)[Bip]Y(Carboxymethyl)[Orn][dL][Dab][Cha][Val(3-OH)][Dap]CK[Aun]-OH; thioether N-14), with 30.4 nM; and `Cc1cccc(C[C@@H]2NC(=O)[C@H](CC(=O)O)NC(=O)[C@H](Cc3ccc(OCC(=O)O)cc3)NC(=O)[C@H](Cc3ccncc3)NC(=O)CSC[C@@H](C(=O)N[C@@H](CCN)C(=O)NCCCCCCCCCCC(=O)O)NC(=O)[C@H](CO)NC(=O)[C@H](C(C)(C)O)NC(=O)[C@H](CC3CCCCC3)NC(=O)[C@H](CCN)NC(=O)[C@@H](CC(C)C)NC(=O)[C@H](CCCN)NC(=O)[C@H](Cc3ccc(OCC(=O)O)cc3)NC(=O)[C@H](Cc3ccc(-c4ccccc4)cc3)NC(=O)[C@H](Cc3cccc(F)c3)NC2=O)c1` [Compound 2194] ({CH2CO}-[4Pal]Y(Carboxymethyl)D[Phe(3-Me)][Phe(3-F)][Bip]Y(Carboxymethyl)[Orn][dL][Dab][Cha][Val(3-OH)]SC[Dab][Aun]-OH; thioether N-14), with 12.9 nM; and `Cc1cccc(C[C@@H]2NC(=O)[C@H](CC(=O)O)NC(=O)[C@H](Cc3ccc(OCC(=O)O)cc3)NC(=O)[C@H](CN)NC(=O)CSC[C@@H](C(=O)N[C@@H](CCC(=O)O)C(=O)NCCOCCOCC(=O)NCCCCCCCCCCC(=O)O)NC(=O)[C@H]([C@@H](C)O)NC(=O)[C@H](C(C)C)NC(=O)[C@H](CC3CCCCC3)NC(=O)[C@H](CCN)NC(=O)[C@@H](CC(C)C)NC(=O)[C@H](CCCN)NC(=O)[C@H](CCCNC(N)=O)NC(=O)[C@H](Cc3ccc(-c4ccccc4)cc3)NC(=O)[C@H](C(C)C)NC2=O)c1` [Compound 1037] ({CH2CO}-[Dap]Y(Carboxymethyl)D[Phe(3-Me)]V[Bip][Cit][Orn][dL][Dab][Cha]VTCE[AEEA][Aun]-OH; thioether N-14), with 7.6 nM. In the case of `CC(=O)NCCCC[C@@H]1NC(=O)[C@H](C(C)(C)O)NC(=O)[C@H](CC2CCCCC2)NC(=O)[C@H](CCN)NC(=O)[C@@H](CC(C)C)NC(=O)[C@H](CCCN)NC(=O)[C@H](CCC(N)=O)NC(=O)[C@H](Cc2ccc(-c3ccccc3)cc2)NC(=O)[C@H](Cc2ccc(C(=O)O)cc2)NC(=O)[C@H](Cc2cccc(C(F)(F)F)c2)NC(=O)[C@H](CC(=O)O)NC(=O)[C@H](Cc2ccc(OCC(=O)O)cc2)NC(=O)[C@H](Cc2ccc(OCC(=O)O)cc2)NC(=O)CSC[C@@H](C(=O)N[C@@H](CCN)C(=O)NCCCCCCCCCCCCC(=O)O)NC1=O` [Compound 3881] ({CH2CO}-Y(Carboxymethyl)Y(Carboxymethyl)D[Phe(3-CF3)][Phe(4-COOH)][Bip]Q[Orn][dL][Dab][Cha][Val(3-OH)]K(Ac)C[Dab]-{NH(CH2)12COOH}; thioether N-14), the IC50 was determined as 24.5 nM. As for `Cc1cccc(C[C@@H]2NC(=O)[C@H](CC(=O)O)NC(=O)[C@H](Cc3ccc(OCC(=O)O)cc3)NC(=O)[C@H](CN)NC(=O)CSC[C@@H](C(=O)N[C@@H](CCN)C(=O)NCCOCCOCC(=O)NCCCCCCCCCCC(=O)O)NC(=O)[C@H](CCCN)NC(=O)[C@H](C(C)C)NC(=O)[C@H](CC3CCCCC3)NC(=O)[C@H](CCN)NC(=O)[C@@H](CC(C)C)NC(=O)[C@H](CCCN)NC(=O)[C@H](CCCNC(N)=O)NC(=O)[C@H](Cc3ccc(-c4ccccc4)cc3)NC(=O)[C@H](Cc3ccc(O)cc3)NC2=O)c1` [Compound 2580] ({CH2CO}-[Dap]Y(Carboxymethyl)D[Phe(3-Me)]Y[Bip][Cit][Orn][dL][Dab][Cha]V[Orn]C[Dab][AEEA][Aun]-OH; thioether N-14), the figure is 7.7 nM; as for `CC(C)C[C@H]1NC(=O)[C@H](CCCN)NC(=O)[C@H](C(C)C)NC(=O)[C@H](Cc2ccc(-c3ccccc3)cc2)NC(=O)[C@H](C(C)C)NC(=O)[C@H](Cc2c[nH]c3ccccc23)NC(=O)[C@H](CC(=O)O)NC(=O)[C@H](Cc2ccc(OCC(=O)O)cc2)NC(=O)[C@H](CN)NC(=O)CSCC(C(=O)N[C@H](CCCN)C(=O)NCCCCCCCCCCC(=O)O)NC(=O)[C@H]([C@@H](C)O)NC(=O)[C@H](C(C)C)NC(=O)[C@H](CC2CCCCC2)NC(=O)[C@H](Cc2cnc[nH]2)NC1=O` (stereo partly drawn) [Compound 1119] ({CH2CO}-[Dap]Y(Carboxymethyl)DWV[Bip]V[Orn][dL]H[Cha]VT[ξC][dOrn][Aun]-OH; thioether N-14), 57.5 nM. Then `CC(C)C[C@H]1NC(=O)[C@H](CCCN)NC(=O)[C@H](CCC(=O)O)NC(=O)[C@H](Cc2ccc(-c3ccccc3)cc2)NC(=O)[C@H](C(C)C)NC(=O)[C@H](Cc2c[nH]c3ccccc23)NC(=O)[C@H](CC(=O)O)NC(=O)[C@H](Cc2ccc(OCC(=O)O)cc2)NC(=O)[C@H](CN)NC(=O)CSC[C@@H](C(=O)NCCOCCOCC(=O)N[C@@H](CCN)C(=O)NCCCCCCCCCCC(=O)O)NC(=O)[C@H](CCCCN)NC(=O)[C@H](C(C)C)NC(=O)[C@H](CC2CCCCC2)NC(=O)[C@H](CCN)NC1=O` [Compound 2657] ({CH2CO}-[Dap]Y(Carboxymethyl)DWV[Bip]E[Orn][dL][Dab][Cha]VKC[AEEA][Dab][Aun]-OH; thioether N-14), with 14.4 nM; and `COC[C@H](NC(=O)COCCOCCNC(=O)[C@H](CCN)NC(=O)[C@@H]1CSCC(=O)N[C@@H](CCN)C(=O)N[C@@H](Cc2ccc(OCC(=O)O)cc2)C(=O)N[C@@H](CC(=O)O)C(=O)N[C@@H](Cc2cccc(C)c2)C(=O)N[C@@H](Cc2ccc(OCC(=O)O)cc2)C(=O)N[C@@H](Cc2ccc(-c3ccccc3)cc2)C(=O)N[C@@H](Cc2ccc(OCC(=O)O)cc2)C(=O)N[C@@H](CCCN)C(=O)N[C@H](CC(C)C)C(=O)N[C@@H](CCN)C(=O)N[C@@H](CC2CCCCC2)C(=O)N[C@@H](C(C)(C)O)C(=O)N[C@@H](CO)C(=O)N1)C(=O)NCCCCCCCCCCCCC(=O)O` [Compound 3816] ({CH2CO}-[Dab]Y(Carboxymethyl)D[Phe(3-Me)]Y(Carboxymethyl)[Bip]Y(Carboxymethyl)[Orn][dL][Dab][Cha][Val(3-OH)]SC[Dab][AEEA]S(Me)-{NH(CH2)12COOH}; thioether N-14), with 26 nM. As for `Cc1cccc(C[C@@H]2NC(=O)[C@H](CC(=O)O)NC(=O)[C@H](Cc3ccc(OCC(=O)O)cc3)NC(=O)[C@H](C(C)O)NC(=O)CSCC(C(=O)N[C@@H](CCN)C(=O)NCCCCCCCCCCCCC(=O)O)NC(=O)[C@H](CO)NC(=O)[C@H](C(C)(C)O)NC(=O)[C@H](CC3CCCCC3)NC(=O)[C@H](CCN)NC(=O)[C@@H](CC(C)C)NC(=O)[C@H](CCCN)NC(=O)[C@H](CCCNC(=N)N)NC(=O)[C@H](Cc3ccc(-c4ccccc4)cc3)NC(=O)[C@H](Cc3ccc(O)cc3)NC2=O)c1` (stereo partly drawn) [Compound 3882] ({CH2CO}-[Thr(3ξ)]Y(Carboxymethyl)D[Phe(3-Me)]Y[Bip]R[Orn][dL][Dab][Cha][Val(3-OH)]S[ξC][Dab]-{NH(CH2)12COOH}; thioether N-14), the figure is 26.8 nM; as for `Cc1cccc(C[C@@H]2NC(=O)[C@H](CC(=O)O)NC(=O)[C@H](Cc3ccc(OCC(=O)O)cc3)NC(=O)[C@H](CCCNC(=N)N)NC(=O)CSC[C@@H](C(=O)N[C@@H](CCN)C(=O)NCCCCCCCCCCC(=O)O)NC(=O)[C@H](CO)NC(=O)[C@H](C(C)O)NC(=O)[C@H](CC3CCCCC3)NC(=O)[C@H](CCN)NC(=O)[C@@H](CC(C)C)NC(=O)[C@H](CCCN)NC(=O)[C@H](Cc3ccc(OCC(=O)O)cc3)NC(=O)[C@H](Cc3ccc(-c4ccccc4)cc3)NC(=O)[C@H](Cc3ccc(OCC(=O)O)cc3)NC2=O)c1` (stereo partly drawn) [Compound 3530] ({CH2CO}-RY(Carboxymethyl)D[Phe(3-Me)]Y(Carboxymethyl)[Bip]Y(Carboxymethyl)[Orn][dL][Dab][Cha][Thr(3ξ)]SC[Dab][Aun]-OH; thioether N-14), 7.3 nM.

With `COc1ccc(C[C@@H]2NC(=O)[C@H](Cc3cccc(C)c3)NC(=O)[C@H](CC(=O)O)NC(=O)[C@H](Cc3ccc(OCC(=O)O)cc3)NC(=O)[C@H](Cc3ccncc3)NC(=O)CSC[C@@H](C(=O)N[C@@H](CCN)C(=O)NCCCCCCCCCCC(=O)O)NC(=O)[C@H](CO)NC(=O)[C@H](C(C)(C)O)NC(=O)[C@H](CC3CCCCC3)NC(=O)[C@H](CCN)NC(=O)[C@@H](CC(C)C)NC(=O)[C@H](CCCN)NC(=O)[C@H](Cc3ccc(OCC(=O)O)cc3)NC(=O)[C@H](Cc3ccc(-c4ccccc4)cc3)NC2=O)cc1` [Compound 2229] ({CH2CO}-[4Pal]Y(Carboxymethyl)D[Phe(3-Me)]Y(Me)[Bip]Y(Carboxymethyl)[Orn][dL][Dab][Cha][Val(3-OH)]SC[Dab][Aun]-OH; thioether N-14), the IC50 worked out at 0.6 nM.
